Experimental data taken from article PMC6278576, “Analogues of Muraymycin Nucleoside Antibiotics with Epimeric Uridine-Derived Core Structures” (Molecules, 2018).
Where two headings read alike, the source gives them in different places.

Experiments:
MraY from S. aureus [1] = target: T1, MraY from S. aureus (Staphylococcus aureus, UniProt Q2FZ93); set-up: method as in PMID 29438582; details: reference compound in Table 1; same value as given in b6; read-out: IC50, in vitro inhibitory activity against MraY from S. aureus; cited from earlier work
T1 construct: made in house; host or cells: E. coli Lemo21

E. coli = test: Antibacterial activity (MIC) against E. coli; type: cell-based; details: Escherichia coli, not active
Protocol: Muraymycin analogues 10–17 were also studied for their antibacterial activities against E. coli, but were not active (MIC > 50 μg/mL).

MraY from S. aureus [2] = target: T1, MraY from S. aureus; test: Fluorescence-based in vitro MraY inhibition assay (dansylated Park's nucleotide, crude membrane preparation); type: biochemical; details: for IC50: crude membrane preparation of MraY heterologously overexpressed in E. coli, triplicates, mean ± standard deviation, read-out: IC50, in vitro inhibitory activity against MraY from S. aureus; for fold weaker MraY inhibition than (6′S)-counterpart: (6′R)-derivatives 12 and 13 vs. 10 and 11, respectively
Protocol: Target compounds 10–17 were tested in vitro for their inhibitory potency towards the bacterial target enzyme MraY. Therefore, a previously reported fluorescence-based assay was employed, using dansylated Park’s nucleotide and MraY from S. aureus (recombinantly overexpressed in E. coli).
The overexpression of MraY was performed as described before. A plasmid containing the mraY gene was transformed into E. coli Lemo21 cells, which were plated on lysogeny broth (LB) agar containing kanamycin (50 μg/mL) and chloramphenicol (30 μg/mL). A single colony was picked to induce an overnight culture (10 mL) of LB media containing kanamycin (50 μg/mL) and chloramphenicol (30 μg/mL), which was incubated at 37 °C and 180 rpm for 16 h. A culture of LB media (500 mL) containing kanamycin (50 μg/mL), chloramphenicol (30 μg/mL), and L-rhamnose (1 mM) was inoculated with the overnight culture (500 μL) and then grown at 37 °C and 180 rpm to OD600 0.6. Subsequently, MraY expression was induced with IPTG (1 mM) and the culture was incubated at 37 °C and 180 rpm for 4 h. Cells were then centrifuged and the pellet was resuspended in buffer A (50 mM Tris-HCl buffer pH 7.5, 1 mM MgCl2, 2 mM β-mercaptoethanol, 15 mL overall). Egg white lysozyme (spatula tip), DNAse I (spatula tip), and cOmplete^TM EDTA-free protease inhibitor cocktail (one tablet) were added. Cells were lysed using sonication and then incubated at 4 °C for 30 min. The lysate was centrifuged and the supernatant was centrifuged again. The resultant pellet was resuspended in buffer A (1.7 mL), flash frozen in liquid nitrogen and stored at −80 °C (aliquots of 20 μL). This MraY-containing crude membrane preparation (overall protein concentration ~20.5 mg/mL as determined by OD280) was diluted with water (final overall protein concentration 1 mg/mL) and then directly used for MraY activity assays without further purification.
The assay was performed as described before. The crude membrane preparation of MraY from S. aureus (1 μL, vide supra) was added to a mixture of undecaprenyl phosphate (50 μM), dansylated Park′s nucleotide (7.5 μM), and the tested compound (at varying concentrations) in buffer (100 mM Tris-HCl buffer pH 7.5, 200 mM KCl, 10 mM MgCl2, 0.1% Triton X-100, 20 μL overall). Fluorescence of the assay mixtures over time was monitored at λex = 355 nm and λem = 520 nm (plate reader, 384-well plate format). MraY activity at a certain inhibitor concentration was determined using linear regression from 0 to 2 min. This measure of activity was plotted against logarithmic inhibitor concentrations and fitted using a sigmoidal fit. This procedure furnished IC50 values with standard deviations.

T1 sequence (Q2FZ93 whole entry): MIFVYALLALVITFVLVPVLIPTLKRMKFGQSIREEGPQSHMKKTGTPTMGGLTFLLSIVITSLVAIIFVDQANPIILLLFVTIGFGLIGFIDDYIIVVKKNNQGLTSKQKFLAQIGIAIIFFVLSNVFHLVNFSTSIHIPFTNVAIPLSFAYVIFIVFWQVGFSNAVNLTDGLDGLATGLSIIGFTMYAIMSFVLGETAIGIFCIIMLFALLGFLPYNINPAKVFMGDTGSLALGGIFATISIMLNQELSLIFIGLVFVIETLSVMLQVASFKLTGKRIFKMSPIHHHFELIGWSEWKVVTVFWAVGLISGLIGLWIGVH

CC(C)[C@H](NC(=O)N[C@H](C(=O)N[C@H](C(=O)NCCCN[C@@H](C[C@H]1O[C@@H](n2ccc(=O)[nH]c2=O)[C@H](O)[C@@H]1O)C(=O)O)[C@@H](O)C(C)C)[C@@H]1CCNC(=N)N1)C(=O)O [Compound 9]
IC50 (MraY from S. aureus [1]): 0.095 ± 0.019 µM

CC(C)C[C@H](NC(=O)[C@H](CCCCN)NC(=O)N[C@H](C(=O)O)C(C)C)C(=O)NCCCN[C@@H](C[C@H]1O[C@@H](n2ccc(=O)[nH]c2=O)[C@H](O)[C@@H]1O)C(=O)O [Compound 10, 5′-deoxy-L-Leu muraymycin analogue]
MIC (E. coli): > 50 µg/mL | fold loss in inhibitory potency (MraY) vs. 9 (MraY from S. aureus [2]; compounds 10 vs. 9, epicapreomycidine replaced by L-lysine, nonhydroxylated L-leucine): ~ 26 fold | IC50 (MraY from S. aureus [2]): 2.5 ± 0.6 µM

CC(C)C[C@@H](NC(=O)[C@H](CCCCN)NC(=O)N[C@H](C(=O)O)C(C)C)C(=O)NCCCN[C@@H](C[C@H]1O[C@@H](n2ccc(=O)[nH]c2=O)[C@H](O)[C@@H]1O)C(=O)O [Compound 11, 5′-deoxy-D-Leu muraymycin analogue]
MIC (E. coli): > 50 µg/mL | IC50 (MraY from S. aureus [2]): 2 ± 0.6 µM

CC(C)C[C@H](NC(=O)[C@H](CCCCN)NC(=O)N[C@H](C(=O)O)C(C)C)C(=O)NCCCN[C@H](C[C@H]1O[C@@H](n2ccc(=O)[nH]c2=O)[C@H](O)[C@@H]1O)C(=O)O [Compound 12, 5′-deoxy-6′-epi-L-Leu muraymycin analogue]
MIC (E. coli): > 50 µg/mL | fold weaker MraY inhibition than (6′S)-counterpart (MraY from S. aureus [2]): 15 fold | IC50 (MraY from S. aureus [2]): 38 ± 6 µM

CC(C)C[C@@H](NC(=O)[C@H](CCCCN)NC(=O)N[C@H](C(=O)O)C(C)C)C(=O)NCCCN[C@H](C[C@H]1O[C@@H](n2ccc(=O)[nH]c2=O)[C@H](O)[C@@H]1O)C(=O)O [Compound 13, 5′-deoxy-6′-epi-D-Leu muraymycin analogue]
MIC (E. coli): > 50 µg/mL | fold weaker MraY inhibition than (6′S)-counterpart (MraY from S. aureus [2]): 12 fold | IC50 (MraY from S. aureus [2]): 24 ± 9 µM

CC(C)C[C@H](NC(=O)[C@H](CCCCN)NC(=O)N[C@H](C(=O)O)C(C)C)C(=O)NCCCN[C@@H](C(=O)O)[C@H](O)[C@H]1O[C@@H](n2ccc(=O)[nH]c2=O)[C@H](O)[C@@H]1O [Compound 14, 6′-epi-L-Leu muraymycin analogue]
MIC (E. coli): > 50 µg/mL | IC50 (MraY from S. aureus [2]): 10 ± 4 µM

CC(C)C[C@@H](NC(=O)[C@H](CCCCN)NC(=O)N[C@H](C(=O)O)C(C)C)C(=O)NCCCN[C@@H](C(=O)O)[C@H](O)[C@H]1O[C@@H](n2ccc(=O)[nH]c2=O)[C@H](O)[C@@H]1O [Compound 15, 6′-epi-D-Leu muraymycin analogue]
MIC (E. coli): > 50 µg/mL | IC50 (MraY from S. aureus [2]): 10 ± 2 µM

CC(C)C[C@H](NC(=O)[C@H](CCCCN)NC(=O)N[C@H](C(=O)O)C(C)C)C(=O)NCCCN[C@H](C(=O)O)[C@@H](O)[C@H]1O[C@@H](n2ccc(=O)[nH]c2=O)[C@H](O)[C@@H]1O [Compound 16, 5′-epi-L-Leu muraymycin analogue]
MIC (E. coli): > 50 µg/mL | fold more active (MraY) than D-leucine epimer 17 (MraY from S. aureus [2]; 16 vs. 17): ~ 3 fold | IC50 (MraY from S. aureus [2]): 6.2 ± 2.8 µM

CC(C)C[C@@H](NC(=O)[C@H](CCCCN)NC(=O)N[C@H](C(=O)O)C(C)C)C(=O)NCCCN[C@H](C(=O)O)[C@@H](O)[C@H]1O[C@@H](n2ccc(=O)[nH]c2=O)[C@H](O)[C@@H]1O [Compound 17, 5′-epi-D-Leu muraymycin analogue]
MIC (E. coli): > 50 µg/mL | IC50 (MraY from S. aureus [2]): 21 ± 4 µM
